The data set is described as follows: blood pool retention time in rodents, against […]. In kind it is in vivo. From the text:
Retention time in the chart below is reported as the blood pool half life, T 1/2 (minutes) for half of the composition to be depleted from the blood pool.

Each structure is given as a SMILES string.

For the compound `CNC[C@H](O)[C@@H](O)[C@H](O)[C@H](O)CO.CNC[C@H](O)[C@@H](O)[C@H](O)[C@H](O)CO.O=C([O-])CN(CCN(CC(=O)[O-])CC(=O)O)CCN(CC(=O)[O-])CC(=O)O.[Gd+3]` [Magnevist], the “Blood Pool T1/2 (blood pool half life, for half of the composition to be depleted from the blood pool)” value turned out to be 12 min.

The values above are taken from patent US5730968A, “Segmented chelating polymers as imaging and therapeutic agents” (Sterling Winthrop Inc., priority 1994, dated 1998).
